Measurements as given in PubChem BioAssay AID2842 (Southern Research Institute, 2010).
Converted amounts (≈) assume the structure as drawn.

These molecules were tested on M. tuberculosis H37Rv growth inhibition (assay: Mycobacterium tuberculosis H37Rv growth inhibition, putative kinase inhibitor library, confirmatory dose response (AID 2842);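 further: bacteria incubated one week before Alamar blue readout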).

Row | SMILES | IC90
1 | COc1ccc(Cn2cc(C(=O)c3ccc(C)cc3)c(=O)c3cc(OC)c(OC)cc32)cc1 | 7.05 µg/mL (≈ 15.9 µM)
2 | Clc1ccc(Nc2ccc(NCc3ccccc3)nn2)cc1 | 5.5 µg/mL (≈ 17.7 µM)
3 | COc1ccc(Cl)c2sc(N(CCCn3ccnc3)C(=O)c3cccs3)nc12 | 1.72 µg/mL (≈ 3.97 µM)
4 | Cc1ccc(-c2nnc(NC(=O)c3ccc(F)cc3)o2)c(C)c1 | 26.3 µg/mL (≈ 84.5 µM)
5 | COc1ccc2nc(N(CCCn3ccnc3)C(=O)Cc3ccc(F)cc3)sc2c1 | 5.64 µg/mL (≈ 13.3 µM)
6 | O=C1CN(C(=O)c2cc(Br)ccc2Cl)C(c2ccccc2)c2cc(F)ccc2N1 (stereo not drawn) | 26.1 µg/mL (≈ 55 µM)
7 | COc1cccc(NCCCn2c(C)cn3c4c(=O)[nH]c(=O)n(C)c4nc23)c1 | 46.2 µg/mL (≈ 121 µM)
8 | COc1ccc(C(=O)Nc2nnc(C3=COCCO3)o2)cc1 | 3.3 µg/mL (≈ 10.9 µM)
9 | CCOC(=O)c1sc(Nc2nc3ccc(OC)cc3s2)cc1C | 83.8 µg/mL (≈ 240 µM)
10 | Cc1nc2cc(NC(=O)Nc3ccc(Cl)cc3)ccc2n1-c1ccccc1 | 6.97 µg/mL (≈ 18.5 µM)
11 | Cc1ccc(C)c(-c2nnc(NC(=O)c3cc(Cl)sc3Cl)o2)c1 | 2.16 µg/mL (≈ 5.87 µM)
12 | Cc1cc(C)c2nc(NNC(=O)c3cc4ccccc4oc3=O)sc2c1 | 2.16 µg/mL (≈ 5.91 µM)
13 | CCOc1cc(-c2nnc(NC(=O)C3=COCCO3)o2)cc(OCC)c1OCC | 7 µg/mL (≈ 17.3 µM)
14 | CN(C)c1ccc(Nc2nncc(=O)[nH]2)cc1 | 8.05 µg/mL (≈ 34.8 µM)
15 | Cc1ccc(-c2nnc(NC(=O)c3ccc(Br)cc3)o2)c(C)c1 | 52.2 µg/mL (≈ 140 µM)
16 | O=C(CCCN1C(=O)/C(=C/c2ccco2)SC1=S)Nc1ccccc1 | 2.96 µg/mL (≈ 7.95 µM)
17 | COc1ccc(C(=O)Nc2nc3c(s2)CCCC3)cc1OC | 22.8 µg/mL (≈ 71.7 µM)
18 | Cc1cc(C)c2sc(NNC(=O)c3cc(-c4cccs4)nc4ccccc34)nc2c1 | 25.6 µg/mL (≈ 59.5 µM)
19 | CC(=O)N1CCc2c(sc(NC(=O)c3ccccc3Oc3ccccc3)c2C(N)=O)C1 | 18.3 µg/mL (≈ 42 µM)
20 | Cc1cc(NC(=O)/C=C/c2ccc([N+](=O)[O-])s2)no1 | 4.04 µg/mL (≈ 14.5 µM)

Row | SMILES | IC90
21 | Cc1ccc(C(=O)Nc2nnc(-c3cc(C)ccc3C)o2)cc1 | 41.5 µg/mL (≈ 135 µM)
22 | COc1ccc(-c2nnc(NC(=O)C3CC3)o2)cc1 | 1.06 µg/mL (≈ 4.09 µM)
23 | COc1ccc(CCNc2cnnc(NCCc3ccc(OC)cc3)n2)cc1 | 24.5 µg/mL (≈ 64.6 µM)
24 | CCCCOc1ccc(C(=O)N2CC(=O)Nc3ccc(Cl)cc3C2c2ccc(F)cc2)cc1 (stereo not drawn) | 13.1 µg/mL (≈ 28.1 µM)
25 | CCOc1ccc2nc(N(CCCn3ccnc3)C(=O)c3cccs3)sc2c1 | 3.43 µg/mL (≈ 8.31 µM)
26 | COC(=O)C(C)Oc1ccc2cc(-c3ccc(OC)c(OC)c3)c(=O)oc2c1 (stereo not drawn) | 6.7 µg/mL (≈ 17.4 µM)
27 | O=C(c1ccc(F)cc1)N1N=C(c2c(-c3ccccc3)c3cc(Br)ccc3[nH]c2=O)CC1c1ccco1 (stereo not drawn) | 13.1 µg/mL (≈ 23.5 µM)
28 | O=C(Nc1nnc(-c2ccc3c(c2)CCCC3)o1)c1cccc(Cl)c1 | 8.65 µg/mL (≈ 24.4 µM)
29 | Cc1ccc(-c2csc(Nc3nc4cc5c(cc4s3)OCO5)n2)o1 | 26.6 µg/mL (≈ 74.5 µM)
30 | COc1ccc(C)c2sc(N(CCCn3ccnc3)C(=O)c3ccc(Cl)s3)nc12 | 2.69 µg/mL (≈ 6.02 µM)
31 | CCOC(=O)c1sc(NC(=O)CCSc2ccccc2)cc1C | 0.82 µg/mL (≈ 2.35 µM)
32 | O=C(Nc1nnc(-c2ccc(Cl)s2)o1)c1ccc([N+](=O)[O-])o1 | 0.85 µg/mL (≈ 2.49 µM)
33 | CCCCC(=O)Nc1nnc(-c2ccc(Cl)s2)o1 | 3.23 µg/mL (≈ 11.3 µM)
34 | COc1cccc2sc(NNC(=O)c3cc(=O)c4ccccc4o3)nc12 | 25.5 µg/mL (≈ 69.5 µM)
35 | O=C(Nc1nnc(-c2ccccc2Cl)o1)c1cccc(Oc2ccccc2)c1 | 0.86 µg/mL (≈ 2.19 µM)
36 | O=C(Nc1nc(-c2nc3ccccc3s2)cs1)C1COc2ccccc2O1 (stereo not drawn) | 26.8 µg/mL (≈ 67.8 µM)
37 | O=c1[nH]c(CSc2ccccc2)nc2ccccc12 | 7.54 µg/mL (≈ 28.1 µM)
38 | Cc1ccc(-c2nnc(NC(=O)CCOc3ccccc3)o2)c(C)c1 | 1.8 µg/mL (≈ 5.34 µM)
39 | Cc1ccc(C)c(-c2nnc(NC(=O)CCc3ccccc3)o2)c1 | 10.9 µg/mL (≈ 33.8 µM)
40 | CC(=O)Nc1nnc(-c2ccc(C)cc2C)o1 | 23.9 µg/mL (≈ 103 µM)

Row | SMILES | IC90
41 | Clc1cccc(N2CCN(c3nc(Nc4ccccc4)c4nccnc4n3)CC2)c1 | 4.58 µg/mL (≈ 11 µM)
42 | O=C(Nc1nnc(-c2ccc(F)cc2)o1)c1ccc(Br)s1 | < 0.2 µg/mL
43 | O=C(CCc1ccccc1)Nc1nnc(-c2cc(Cl)ccc2Cl)o1 | 26.6 µg/mL (≈ 73.4 µM)
44 | COc1ccc2nc(Nc3nc4c(F)cccc4s3)sc2c1 | 23.4 µg/mL (≈ 70.8 µM)
45 | CC(=O)N1CCc2c(sc(NC(=O)c3cccs3)c2C(N)=O)C1 | 3.21 µg/mL (≈ 9.19 µM)
46 | CC(C)(C)C(=O)Nc1nnc(-c2ccc3c(c2)CCCC3)o1 | 4.73 µg/mL (≈ 15.8 µM)
47 | O=C(Nc1nnc(-c2ccco2)o1)c1ccccc1F | 6.69 µg/mL (≈ 24.5 µM)
48 | O=C(Cc1ccccc1)Nc1nnc(-c2ccc3c(c2)CCCC3)o1 | 55.8 µg/mL (≈ 167 µM)
49 | COc1cc2c(=O)c(C(=O)c3ccc(Cl)cc3)cn(Cc3ccccc3F)c2cc1OC | 45 µg/mL (≈ 99.5 µM)
50 | O=C(COc1ccccc1)Nc1nnc(-c2ccc3c(c2)CCCC3)o1 | 6.48 µg/mL (≈ 18.5 µM)
51 | COC(=O)CSc1ncnc2c1cnn2-c1ccc(F)cc1 | 4.54 µg/mL (≈ 14.3 µM)
52 | COc1ccccc1-c1cnn2c(Nc3cccc(Cl)c3)cc(C)nc12 | 1.72 µg/mL (≈ 4.71 µM)
53 | CSc1cccc2sc(Nc3cccc(Br)c3)nc12 | 6.73 µg/mL (≈ 19.2 µM)
54 | O=C(Nc1nc(-c2ccc3c(c2)CCCC3)cs1)c1ccc2c(c1)OCCO2 | 14.5 µg/mL (≈ 36.9 µM)
55 | O=C1CN(C(=O)c2cccc(F)c2)C(c2ccc(F)cc2)c2cc(Br)ccc2N1 (stereo not drawn) | 32.1 µg/mL (≈ 70.2 µM)
56 | O=C(c1cccs1)N(CCCn1ccnc1)c1nc2c(F)cc(F)cc2s1 | 2.38 µg/mL (≈ 5.88 µM)
57 | Cc1ccc(-c2nnc(NC(=O)c3cc([N+](=O)[O-])ccc3Cl)o2)c(C)c1 | 1.57 µg/mL (≈ 4.21 µM)
58 | CC1CCc2c(sc(Nc3nc4c(F)cccc4s3)c2C(N)=O)C1 (stereo not drawn) | 8.58 µg/mL (≈ 23.7 µM)
